A short description of this data set: in vitro. To be noted: human, hek293t cells.
On to `C=CC(=O)N1CCC(c2nc(C)no2)CC1` [3-E05, 1-[4-(3-methyl-1,2,4-oxadiazol-5-yl)piperidin-1-yl]prop-2-en-1-one], for which the viability (in general, a read-out of living cells in per cent, often relative to untreated cells) at 48 h, 25 µM was determined as 49.7%.

`C=CC(=O)N1CCC(C(=O)N2CCOc3cc(F)ccc3C2)CC1` [3-E06, 1-[4-(8-fluoro-2,3,4,5-tetrahydro-1,4-benzoxazepine-4-carbonyl)piperidin-1-yl]prop-2-en-1-one]: the viability at 48 h, 25 µM worked out at 67.9%.

As for `C=CC(=O)N1CCC(C(=O)NCCc2cc[nH]n2)CC1` [3-E07, 1-(prop-2-enoyl)-N-[2-(1H-pyrazol-3-yl)ethyl]piperidine-4-carboxamide], the viability at 48 h, 25 µM amounted to 34.2%.

On to `C=CC(=O)N1CCC(C(=O)N2CCC(OC)(C(F)(F)F)CC2)CC1` [3-E08, 1-{4-[4-methoxy-4-(trifluoromethyl)piperidine-1-carbonyl]piperidin-1-yl}prop-2-en-1-one], for which the viability at 48 h, 25 µM is 98.2%.

Regarding `C=CC(=O)N1CCOC(c2cccc(OC)c2)C1` (centres unmarked) [3-E09, 1-[2-(3-methoxyphenyl)morpholin-4-yl]prop-2-en-1-one], the viability at 48 h, 25 µM came to 34.5%.

With `C=CC(=O)NCCC(=O)N1CCCC1c1cn(C)nc1C` (centres unmarked) [3-E10, N-{3-[2-(1,3-dimethyl-1H-pyrazol-4-yl)pyrrolidin-1-yl]-3-oxopropyl}prop-2-enamide], the viability at 48 h, 25 µM amounted to 95.2%.

For the molecule `C=CC(=O)N1CCCC2(CCCOC2)C1` (centres unmarked) [3-E11, 1-{2-oxa-8-azaspiro[5.5]undecan-8-yl}prop-2-en-1-one], the viability at 48 h, 25 µM is 46.3%.

Take `C=CC(=O)N1CCC([C@@H](C)O)CC1` [3-E12, 1-{4-[(1R)-1-hydroxyethyl]piperidin-1-yl}prop-2-en-1-one]: the viability at 48 h, 25 µM came to 104%.

For the molecule `C=CC(=O)Nc1ccc(C(=O)N2CCCCC2c2n[nH]c(C)n2)cc1` (centres unmarked) [3-E13, N-{4-[2-(5-methyl-1H-1,2,4-triazol-3-yl)piperidine-1-carbonyl]phenyl}prop-2-enamide], the viability at 48 h, 25 µM was determined as 34.9%.

In the case of `C=CC(=O)N(C)CC(=O)NC(C)(C)c1nc(C)cs1` [3-E14, N-methyl-N-({[2-(4-methyl-1,3-thiazol-2-yl)propan-2-yl]carbamoyl}methyl)prop-2-enamide], the viability at 48 h, 25 µM came out at 87.9%.

Turning to `C=CC(=O)N1CCCC(CNC(C)=O)C1` (centres unmarked) [3-E15, N-{[1-(prop-2-enoyl)piperidin-3-yl]methyl}acetamide], the viability at 48 h, 25 µM came out at 46.4%.

Regarding `C=CC(=O)N1CCC(C(=O)Nc2ccc3c(c2)CCN3C(N)=O)CC1` [3-E16, 5-[1-(prop-2-enoyl)piperidine-4-amido]-2,3-dihydro-1H-indole-1-carboxamide], the viability at 48 h, 25 µM came to 101%.

As for `C=CC(=O)N1CCC(C(=O)N[C@]2(C(=O)OC)CC[C@@H](C)CC2)CC1` [3-E17, methyl (1r,4r)-4-methyl-1-[1-(prop-2-enoyl)piperidine-4-amido]cyclohexane-1-carboxylate], the viability at 48 h, 25 µM is 57%.

On to `C=CC(=O)NCc1ncoc1C(F)(F)F` [3-E18, N-{[5-(trifluoromethyl)-1,3-oxazol-4-yl]methyl}prop-2-enamide], for which the viability at 48 h, 25 µM stood at 93.1%.

Turning to `C=CC(=O)NCc1ccc(C(=O)N2CCCC(c3nnc[nH]3)C2)cc1` (centres unmarked) [3-E19, N-({4-[3-(4H-1,2,4-triazol-3-yl)piperidine-1-carbonyl]phenyl}methyl)prop-2-enamide], the viability at 48 h, 25 µM was found to be 34.3%.

Consider `C=CC(=O)N1CCC(C(=O)Nc2ccc(N)c([N+](=O)[O-])c2)CC1` [3-E20, N-(4-amino-3-nitrophenyl)-1-(prop-2-enoyl)piperidine-4-carboxamide], for which the viability at 48 h, 25 µM amounted to 56.7%.

`C=CC(=O)N(CC)CC(=O)N1CCNC(=O)CC1c1ccccc1` (centres unmarked) [3-E21, N-ethyl-N-[2-oxo-2-(5-oxo-7-phenyl-1,4-diazepan-1-yl)ethyl]prop-2-enamide]: the viability at 48 h, 25 µM amounted to 33.1%.

With `C=CC(=O)N1CCC(C(=O)N[C@@H](C)c2ccc(Cl)s2)CC1` [3-E22, N-[(1S)-1-(5-chlorothiophen-2-yl)ethyl]-1-(prop-2-enoyl)piperidine-4-carboxamide], the viability at 48 h, 25 µM came to 65.7%.

On to `C=CC(=O)N(CC)CC(=O)N1CCCC(c2nccn2C)C1` (centres unmarked) [3-F03, N-ethyl-N-{2-[3-(1-methyl-1H-imidazol-2-yl)piperidin-1-yl]-2-oxoethyl}prop-2-enamide], for which the viability at 48 h, 25 µM was found to be 106%.

For `C=CC(=O)N1CCCCC1c1nc2ccccc2n1C` (centres unmarked) [3-F04, 1-[2-(1-methyl-1H-1,3-benzodiazol-2-yl)piperidin-1-yl]prop-2-en-1-one], the viability at 48 h, 25 µM is 84.2%.

`C=CC(=O)N1CCC(C(=O)Nc2cccc(NC(=O)C(C)C)c2)CC1` [3-F05, N-[3-(2-methylpropanamido)phenyl]-1-(prop-2-enoyl)piperidine-4-carboxamide]: the viability at 48 h, 25 µM was 53.3%.

With `C=CC(=O)NCCC(=O)N1CCN(c2nc(C)cs2)CC1` [3-F07, N-{3-[4-(4-methyl-1,3-thiazol-2-yl)piperazin-1-yl]-3-oxopropyl}prop-2-enamide], the viability at 48 h, 25 µM was found to be 52.1%.

For the molecule `C=CC(=O)NCCC(=O)N1CCc2cc(C)c([N+](=O)[O-])cc21` [3-F08, N-[3-(5-methyl-6-nitro-2,3-dihydro-1H-indol-1-yl)-3-oxopropyl]prop-2-enamide], the viability at 48 h, 25 µM was determined as 82.7%.

For the molecule `C=CC(=O)NC(C)c1ccc2c(c1)CCC2` (centres unmarked) [3-F09, N-[1-(2,3-dihydro-1H-inden-5-yl)ethyl]prop-2-enamide], the viability at 48 h, 25 µM was 72.3%.

As to `C=CC(=O)NCc1nnc(COC)[nH]1` [3-F10, N-{[5-(methoxymethyl)-4H-1,2,4-triazol-3-yl]methyl}prop-2-enamide], the viability at 48 h, 25 µM was found to be 102%.

For the molecule `C=CC(=O)NCc1cccc(CNS(C)(=O)=O)c1` [3-F11, N-{[3-(methanesulfonamidomethyl)phenyl]methyl}prop-2-enamide], the viability at 48 h, 25 µM was 95.9%.

Consider `C=CC(=O)N1CCC(C(=O)N[C@H]2CCOc3c(F)cccc32)CC1` [3-F12, N-[(4S)-8-fluoro-3,4-dihydro-2H-1-benzopyran-4-yl]-1-(prop-2-enoyl)piperidine-4-carboxamide], for which the viability at 48 h, 25 µM amounted to 64.9%.

`C=CC(=O)N(CCC(N)=O)C1CCOc2ccccc21` (centres unmarked) [3-F13, N-(2-carbamoylethyl)-N-(3,4-dihydro-2H-1-benzopyran-4-yl)prop-2-enamide]: the viability at 48 h, 25 µM worked out at 69.2%.

`C=CC(=O)Nc1cc(C)cc(S(C)(=O)=O)c1` [3-F14, N-(3-methanesulfonyl-5-methylphenyl)prop-2-enamide]: the viability at 48 h, 25 µM stood at 94.1%.

Take `C=CC(=O)N(C)Cc1cn(C)nc1C(C)C` [3-F15, N-methyl-N-{[1-methyl-3-(propan-2-yl)-1H-pyrazol-4-yl]methyl}prop-2-enamide]: the viability at 48 h, 25 µM came out at 80.7%.

With `C=CC(=O)Nc1ccccc1CNS(C)(=O)=O` [3-F16, N-[2-(methanesulfonamidomethyl)phenyl]prop-2-enamide], the viability at 48 h, 25 µM turned out to be 104%.

As for `C=CC(=O)NC(Cn1cncn1)c1ccccc1` (centres unmarked) [3-F17, N-[1-phenyl-2-(1H-1,2,4-triazol-1-yl)ethyl]prop-2-enamide], the viability at 48 h, 25 µM came to 71.9%.

As for `C=CC(=O)NC1CCC(S(C)(=O)=O)C1` (centres unmarked) [3-F18, N-(3-methanesulfonylcyclopentyl)prop-2-enamide], the viability at 48 h, 25 µM was determined as 94.3%.

As to `C=CC(=O)NCC1CCCN1S(=O)(=O)CC` (centres unmarked) [3-F19, N-{[1-(ethanesulfonyl)pyrrolidin-2-yl]methyl}prop-2-enamide], the viability at 48 h, 25 µM amounted to 68.6%.

As for `C=CC(=O)NCc1cc(C(F)(F)F)on1` [3-F20, N-{[5-(trifluoromethyl)-1,2-oxazol-3-yl]methyl}prop-2-enamide], the viability at 48 h, 25 µM was found to be 84.8%.

For the molecule `C=CC(=O)NCCN1CCn2nccc2C1` [3-F21, N-(2-{4H,5H,6H,7H-pyrazolo[1,5-a]pyrazin-5-yl}ethyl)prop-2-enamide], the viability at 48 h, 25 µM amounted to 72.8%.

In the case of `C=CC(=O)N1CCN(Cc2cc(=O)n3ccsc3n2)CC1` [3-F22, 7-{[4-(prop-2-enoyl)piperazin-1-yl]methyl}-5H-[1,3]thiazolo[3,2-a]pyrimidin-5-one], the viability at 48 h, 25 µM was 90.5%.

Turning to `C=CC(=O)N1C2C=C(c3nccn3C)CC1CC2` (centres unmarked) [3-G03, 1-[3-(1-methyl-1H-imidazol-2-yl)-8-azabicyclo[3.2.1]oct-2-en-8-yl]prop-2-en-1-one], the viability at 48 h, 25 µM came out at 52.5%.

Consider `C=CC(=O)N(C)CC(=O)Nc1ccc(C)c(S(=O)(=O)N(C)C)c1` [3-G04, N-({[3-(dimethylsulfamoyl)-4-methylphenyl]carbamoyl}methyl)-N-methylprop-2-enamide], for which the viability at 48 h, 25 µM amounted to 78.3%.

As to `C=CC(=O)N(C)c1ccc(C#N)c(Cl)c1` [3-G05, N-(3-chloro-4-cyanophenyl)-N-methylprop-2-enamide], the viability at 48 h, 25 µM was determined as 0.69%.

Turning to `C=CC(=O)NC1CCN(c2nnnn2C)CC1` [3-G06, N-[1-(1-methyl-1H-1,2,3,4-tetrazol-5-yl)piperidin-4-yl]prop-2-enamide], the viability at 48 h, 25 µM came to 79.8%.

Consider `C=CC(=O)N(CC)CC(=O)N1CCNC(=O)C1c1cccs1` (centres unmarked) [3-G07, N-ethyl-N-{2-oxo-2-[3-oxo-2-(thiophen-2-yl)piperazin-1-yl]ethyl}prop-2-enamide], for which the viability at 48 h, 25 µM was 40%.

Regarding `C=CC(=O)Nc1ccnn1CC1CC1` [3-G09, N-[1-(cyclopropylmethyl)-1H-pyrazol-5-yl]prop-2-enamide], the viability at 48 h, 25 µM was determined as 41.5%.

For the molecule `C=CC(=O)N1CCCN(S(=O)(=O)c2ccc(OC)cc2)CC1` [3-G10, 1-[4-(4-methoxybenzenesulfonyl)-1,4-diazepan-1-yl]prop-2-en-1-one], the viability at 48 h, 25 µM turned out to be 96.8%.

Regarding `C=CC(=O)N1CCN(Cc2nc(C(C)C)no2)CC1` [3-G11, 1-(4-{[3-(propan-2-yl)-1,2,4-oxadiazol-5-yl]methyl}piperazin-1-yl)prop-2-en-1-one], the viability at 48 h, 25 µM turned out to be 55.2%.

In the case of `C=CC(=O)N1CCCC1c1cc(C)no1` (centres unmarked) [3-G12, 1-[2-(3-methyl-1,2-oxazol-5-yl)pyrrolidin-1-yl]prop-2-en-1-one], the viability at 48 h, 25 µM was 91.7%.

With `C=CC(=O)N1CCC(C(=O)NC(C)c2cccc(C(F)(F)F)c2)CC1` (centres unmarked) [3-G13, 1-(prop-2-enoyl)-N-{1-[3-(trifluoromethyl)phenyl]ethyl}piperidine-4-carboxamide], the viability at 48 h, 25 µM came to 40.6%.

Values taken from paper PMC11995724, “Antibiotic target discovery by integrated phenotypic and activity-based profiling of electrophilic fragments” (Cell chemical biology, 2025).
